One may read the IC50 as the point on the concentration scale where inhibition reaches its midpoint. Low readings indicate greater potency in that assay, high ones weaker potency in that assay. In general, melting point refers to the temperature of the solid-liquid transition.

Molecules are shown by their SMILES. Counter-ions that a name gives are not always drawn.

Among the data in US7342014B2, “Diamine derivatives” (Daiichi Pharmaceutical Co., Ltd., priority 2001, dated 2008) are IC50 and melting point values, retold here.

The first data set deals with T1, human FXa (Homo sapiens, UniProt P00742).
T1 construct: purchased Enzyme Research Labolatories, Inc
T1 sequence (P00742 235-488 limits assumed): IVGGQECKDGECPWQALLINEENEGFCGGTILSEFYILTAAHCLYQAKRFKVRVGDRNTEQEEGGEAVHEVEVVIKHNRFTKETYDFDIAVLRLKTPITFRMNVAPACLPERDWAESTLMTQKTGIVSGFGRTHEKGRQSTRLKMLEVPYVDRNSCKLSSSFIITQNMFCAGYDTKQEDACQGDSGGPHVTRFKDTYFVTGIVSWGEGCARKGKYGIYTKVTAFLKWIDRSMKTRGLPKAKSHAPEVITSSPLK
T1 sequence (P00742 41-179 partner limits assumed): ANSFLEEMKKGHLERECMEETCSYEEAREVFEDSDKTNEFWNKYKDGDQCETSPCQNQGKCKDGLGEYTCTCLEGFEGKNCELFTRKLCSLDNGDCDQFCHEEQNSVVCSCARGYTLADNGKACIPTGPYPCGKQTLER
The data set is described as follows: Determination of human FXa-inhibiting effect (IC50 value). Type of data set: biochemical. An excerpt:
Determination of Human FXa-inhibiting Effect (IC50 Value)
As a control, Tris buffer was used in place of the test compound.
`CN1CCc2nc(C(=O)N[C@H]3CCC[C@@H]3NC(=O)c3cc4cc(Cl)ccc4[nH]3)sc2C1` (relative stereo) [Example 3, N-((1R*,2R*)-2-{[(5-Chloroindol-2-yl)carbonyl]amino}-cyclopentyl)-5-methyl-4,5,6,7-tetrahydrothiazolo[5,4-c]-pyridine-2-carboxamide hydrochloride] displayed an IC50 of 86 nM.

System in the next data set: not given
Assay: not given
Turning to `CN1CCc2nc(C(=O)N[C@@H]3CN(C(=O)CC(C)(C)C)CC[C@@H]3NC(=O)c3cc4cc(Cl)ccc4[nH]3)sc2C1` (relative stereo) (as salt: hydrochloride) [Example 136, N-[(3R*,4S*)-4-{[(5-Chloroindol-2-yl)carbonyl]amino}-1-(3,3-dimethylbutanoyl)piperidin-3-yl]-5-methyl-4,5,6,7-tetrahydrothiazolo[5,4-c]pyridine-2-carboxamide hydrochloride], the melting point was 260 to 265 °C (dec.).

In the case of `CN1CCc2nc(C(=O)N[C@@H]3CN(C(=O)C(F)(F)F)CC[C@@H]3NC(=O)c3cc4cc(Cl)ccc4[nH]3)sc2C1` (relative stereo) (as salt: hydrochloride) [Example 137, N-[(3R*,4S*)-4-{[(5-Chloroindol-2-yl)carbonyl]amino}-1-(2,2,2-trifluoroacetyl)piperidin-3-yl]-5-methyl-4,5,6,7-tetrahydrothiazolo[5,4-c]pyridine-2-carboxamide hydrochloride], the melting point was 262 to 267 °C (dec.).

In the case of `CN1CCc2nc(C(=O)N[C@@H]3CN(C(=O)C4CC4)CC[C@@H]3NC(=O)c3cc4cc(Cl)ccc4[nH]3)sc2C1` (relative stereo) (as salt: hydrochloride) [Example 138, N-[(3R*,4S*)-4-{[(5-Chloroindol-2-yl)carbonyl]amino}-1-(cyclopropylcarbonyl)piperidin-3-yl]-5-methyl-4,5,6,7-tetrahydrothiazolo[5,4-c]pyridine-2-carboxamide hydrochloride], the melting point was 280 to 286 °C (dec.).

Regarding `COCC(=O)N1CC[C@H](NC(=O)c2cc3cc(Cl)ccc3[nH]2)[C@H](NC(=O)c2nc3c(s2)CN(C)CC3)C1` (relative stereo) (as salt: hydrochloride) [Example 143, N-[(3R*,4S*)-4-{[(5-Chloroindol-2-yl)carbonyl]amino}-1-(2-methoxyacetyl)piperidin-3-yl]-5-methyl-4,5,6,7-tetrahydro-thiazolo[5,4-c]pyridine-2-carboxamide hydrochloride], the melting point was 214 to 228 °C (dec.).

With `COCC(COC)C(=O)N1CC[C@H](NC(=O)c2cc3cc(Cl)ccc3[nH]2)[C@H](NC(=O)c2nc3c(s2)CN(C)CC3)C1` (relative stereo) (as salt: hydrochloride) [Example 152, N-{(3R*,4S*)-4-{[(5-Chloroindol-2-yl)carbonyl]amino}-1-[3-methoxy-2-(methoxymethyl)propanoyl]piperidin-3-yl]-5-methyl-4,5,6,7-tetrahydrothiazolo[5,4-c]pyridine-2-carboxamide hydrochloride], the melting point was 178 to 184 °C (dec.).

`CN1CCc2nc(C(=O)N[C@@H]3CN(C(=O)c4ccccc4)CC[C@@H]3NC(=O)c3cc4cc(Cl)ccc4[nH]3)sc2C1` (relative stereo) (as salt: hydrochloride) [Example 154, N-((3R*,4S*)-1-benzoyl-4-{[(5-Chloroindol-2-yl)carbonyl]amino}piperidin-3-yl]-5-methyl-4,5,6,7-tetrahydrothiazolo[5,4-c]pyridine-2-carboxamide hydrochloride]: the melting point was 215 to 225 °C (dec.).

Take `CN1CCc2nc(C(=O)N[C@@H]3CN(CCF)CC[C@@H]3NC(=O)c3cc4cc(Cl)ccc4[nH]3)sc2C1` (relative stereo) (as salt: hydrochloride) [Example 168, N-[(3R*,4S*)-4-{[(5-Chloroindol-2-yl)carbonyl]amino}-1-(2-fluoroethyl)piperidin-3-yl]-5-methyl-4,5,6,7-tetrahydro-thiazolo[5,4-c]pyridine-2-carboxamide dihydrochloride]: the melting point was 228 to 233 °C (dec.).

On to `CN1CCc2nc(C(=O)N[C@@H]3CS(=O)(=O)CC[C@@H]3NC(=O)c3cc4cc(Cl)ccc4[nH]3)sc2C1` (relative stereo) (as salt: hydrochloride) [Example 178, N-((3R*,4R*)-4-{[(5-Chloroindol-2-yl)carbonyl]amino}-1,1-dioxohexahydro-1-thiopyran-3-yl)-5-methyl-4,5,6,7-tetrahydrothiazolo[5,4-c]pyridine-2-carboxamide hydrochloride], for which the melting point was in the range of 241 to 244 °C.

In turn, `CN1CCc2nc(C(=O)N[C@@H]3CS(=O)(=O)CC[C@@H]3NC(=O)c3cc4cc(F)ccc4[nH]3)sc2C1` (relative stereo) (as salt: hydrochloride) [Example 179, N-((3R*,4R*)-4-{[(5-Fluoroindol-2-yl)carbonyl]amino}-1,1-dioxohexahydro-1-thiopyran-3-yl)-5-methyl-4,5,6,7-tetrahydrothiazolo[5,4-c]pyridine-2-carboxamide hydrochloride] returned a melting point of 243 to 245 °C.

With `CN1CCc2nc(C(=O)N[C@@H]3CCS(=O)(=O)C[C@@H]3NC(=O)c3cc4cc(Cl)ccc4[nH]3)sc2C1` (relative stereo) (as salt: hydrochloride) [Example 180, N-((3R*,4R*)-3-{[(5-Chloroindol-2-yl)carbonyl]amino}-1,1-dioxohexahydro-1-thiopyran-4-yl)-5-methyl-4,5,6,7-tetrahydrothiazolo[5,4-c]pyridine-2-carboxamide hydrochloride], the melting point lay in the range of 242 to 247 °C.

Compound `CN1CCc2nc(C(=O)N[C@@H]3CS(=O)(=O)CC[C@H]3NC(=O)c3cc4cc(Cl)ccc4[nH]3)sc2C1` (relative stereo) (as salt: hydrochloride) [Example 181, N-((3R*,4S*)-4-{[(5-Chloroindol-2-yl)carbonyl]amino}-1,1-dioxohexahydro-1-thiopyran-3-yl)-5-methyl-4,5,6,7-tetrahydrothiazolo[5,4-c]pyridine-2-carboxamide hydrochloride] gave a melting point of 244 to 249 °C.

As to `CN1CCc2nc(C(=O)N[C@@H]3CS(=O)(=O)CC[C@H]3NC(=O)c3cc4cc(F)ccc4[nH]3)sc2C1` (relative stereo) (as salt: hydrochloride) [Example 182, N-((3R*,4S*)-4-{[(5-Fluoroindol-2-yl)carbonyl]amino}-1,1-dioxohexahydro-1-thiopyran-3-yl)-5-methyl-4,5,6,7-tetrahydrothiazolo[5,4-c]pyridine-2-carboxamide hydrochloride], the melting point fell in the range of 236 to 241 °C.

For the compound `CN1CCc2nc(C(=O)N[C@@H]3CCS(=O)(=O)C[C@@H]3NC(=O)c3cc4cc(F)ccc4[nH]3)sc2C1` (relative stereo) (as salt: hydrochloride) [Example 183, N-((3R*,4R*)-3-{[(5-Fluoroindol-2-yl)carbonyl]amino}-1,1-dioxohexahydro-1-thiopyran-4-yl)-5-methyl-4,5,6,7-tetrahydrothiazolo[5,4-c]pyridine-2-carboxamide hydrochloride], the melting point was 244 to 249 °C.

As to `CN1CCc2nc(C(=O)N[C@@H]3CCN(C(=O)OC(C)(C)C)C[C@@H]3NC(=O)c3cc4cc(Cl)ccc4[nH]3)sc2C1` (relative stereo) [Example 119, tert-Butyl (3R*,4S*)-3-{[(5-chloroindol-2-yl)carbonyl]-amino}-4-{[(5-methyl-4,5,6,7-tetrahydrothiazolo[5,4-c]-pyridin-2-yl)carbonyl]amino}piperidine-1-carboxylate], the melting point was 187 to 189 °C (dec.).

Consider `CN1CCc2nc(C(=O)N[C@@H]3CN(C(=O)C(C)(C)CO)CC[C@@H]3NC(=O)c3cc4cc(Cl)ccc4[nH]3)sc2C1` (relative stereo) [Example 146, N-[(3R*,4S*)-4-{[(5-chloroindol-2-yl)carbonyl]amino}-1-(3-hydroxy-2,2-dimethylpropanoyl)piperidin-3-yl)-5-methyl-4,5,6,7-tetrahydrothiazolo[5,4-c]pyridine-2-carboxamide], for which the melting point is 220 °C (dec.).

`COCC(C)(C)C(=O)N1CC[C@H](NC(=O)c2cc3cc(Cl)ccc3[nH]2)[C@H](NC(=O)c2nc3c(s2)CN(C)CC3)C1` (relative stereo) [Example 147, N-[(3R*,4S*)-4-{[(5-chloroindol-2-yl)carbonyl]amino}-1-(3-methoxy-2,2-dimethylpropanoyl)piperidin-3-yl)-5-methyl-4,5,6,7-tetrahydrothiazolo[5,4-c]pyridine-2-carboxamide]: the melting point is 240 °C (dec.).

Consider `CC(=O)OC(C)(C)C(=O)N1CC[C@H](NC(=O)c2cc3cc(Cl)ccc3[nH]2)[C@H](NC(=O)c2nc3c(s2)CN(C)CC3)C1` (relative stereo) [Example 148, 2-((3R*,4S*)-4-{[(5-Chloroindol-2-yl)carbonyl]amino}-3-{[(5-methyl-4,5,6,7-tetrahydrothiazolo[5,4-c]pyridin-2-yl)carbonyl]amino}piperidin-1-yl)-1,1-dimethyl-2-oxoethyl acetate], for which the melting point was 190 °C (dec.).

As for `CN1CCc2nc(C(=O)N[C@@H]3CN(C(=O)C(C)(C)O)CC[C@@H]3NC(=O)c3cc4cc(Cl)ccc4[nH]3)sc2C1` (relative stereo) [Example 149, N-[(3R*,4S*)-4-{[(5-Chloroindol-2-yl)carbonyl]amino}-1-(2-hydroxy-2-methylpropanoyl)piperidin-3-yl]-5-methyl-4,5,6,7-tetrahydrothiazolo[5,4-c]pyridine-2-carboxamide], the melting point was 190 °C (dec.).

Regarding `CN1CCc2nc(C(=O)N[C@@H]3CN(C(=O)OC(C)(C)C)C[C@H]3NC(=O)c3cc4cc(Cl)ccc4[nH]3)sc2C1` [Example 94, tert-Butyl (3R,4R)-3-{[(5-chloroindol-2-yl)carbonyl]-amino}-4-{[(5-methyl-4,5,6,7-tetrahydrothiazolo[5,4-c]-pyridin-2-yl)carbonyl]amino}pyrrolidine-1-carboxylate], the melting point is 190 to 192 °C.
